Measured values: paper PMC5218480 (PLoS ONE, 2017)

Test system: MV-4-11 cells
Experiment: Gene expression microarray analysis (Affymetrix PrimeView) and GSEA
Type: cell-based, human
Parameters: RFU PODN (11730768_x_at) / Fold change /veh PODN (11730768_x_at) / RFU LINC00158 (11744669_a_at) / Fold change /veh LINC00158 (11744669_a_at) / RFU DUSP10 (11751237_a_at) / Fold change /veh DUSP10 (11751237_a_at) / RFU ID3 (11757404_x_at) / Fold change /veh ID3 (11757404_x_at) / RFU PLEKHG5 (11737974_s_at) / Fold change /veh PLEKHG5 (11737974_s_at) / RFU LRRC4B (11730491_at) / Fold change /veh LRRC4B (11730491_at) / RFU GIMAP4 (11747438_a_at) / Fold change /veh GIMAP4 (11747438_a_at) / RFU KRT8 (11758183_x_at) / Fold change /veh KRT8 (11758183_x_at) / RFU CNN1 (11734310_a_at) / Fold change /veh CNN1 (11734310_a_at) / RFU VPS37D (11726825_at) / Fold change /veh VPS37D (11726825_at) / RFU C10orf10 (11716522_x_at) / Fold change /veh C10orf10 (11716522_x_at) / RFU KIR2DL2 /// KIR2DL4 /// KIR2DL5A /// KIR2DL5B /// KIR2DS1 /// KIR2DS2 /// KIR2DS3 /// KIR2DS4 /// KIR3DL3 /// KIR3DL3 /// KIR3DS1 (11738374_at) / Fold change /veh KIR2DL2 /// KIR2DL4 /// KIR2DL5A /// KIR2DL5B /// KIR2DS1 /// KIR2DS2 /// KIR2DS3 /// KIR2DS4 /// KIR3DL3 /// KIR3DL3 /// KIR3DS1 (11738374_at) / RFU C1QL1 (11718748_at) / Fold change /veh C1QL1 (11718748_at) / RFU TMPRSS4 (11747572_a_at) / Fold change /veh TMPRSS4 (11747572_a_at) / RFU HAMP (11756126_x_at) / Fold change /veh HAMP (11756126_x_at) / RFU RNFT2 (11725882_a_at) / Fold change /veh RNFT2 (11725882_a_at) / RFU NR4A2 (11747474_a_at) / Fold change /veh NR4A2 (11747474_a_at) / RFU ABCC12 (11746883_a_at) / Fold change /veh ABCC12 (11746883_a_at) / RFU TMEM136 (11760407_x_at) / Fold change /veh TMEM136 (11760407_x_at) / RFU CLDN22 /// WWC2 (11732394_at) / Fold change /veh CLDN22 /// WWC2 (11732394_at) / RFU HLA-DPB1 (11760878_x_at) / Fold change /veh HLA-DPB1 (11760878_x_at) / RFU SPINT1 (11716480_a_at) / Fold change /veh SPINT1 (11716480_a_at) / RFU GAP43 (11754022_s_at) / Fold change /veh GAP43 (11754022_s_at) / RFU A4GNT (11735810_at) / Fold change /veh A4GNT (11735810_at) / RFU PRB3 (11715151_x_at) / Fold change /veh PRB3 (11715151_x_at) / RFU TUBB4B (11761932_at) / Fold change /veh TUBB4B (11761932_at) / RFU CAPN14 (11732068_a_at) / Fold change /veh CAPN14 (11732068_a_at) / RFU TMCC2 (11721928_a_at) / Fold change /veh TMCC2 (11721928_a_at) / RFU IRGQ (11745062_a_at) / Fold change /veh IRGQ (11745062_a_at) / RFU FAM174B (11720279_a_at) / Fold change /veh FAM174B (11720279_a_at) / RFU TMPRSS4 (11748680_a_at) / Fold change /veh TMPRSS4 (11748680_a_at) / RFU FAM212B (11763350_a_at) / Fold change /veh FAM212B (11763350_a_at) / RFU PLEKHG5 (11743358_a_at) / Fold change /veh PLEKHG5 (11743358_a_at) / RFU ZSCAN30 (11745921_a_at) / Fold change /veh ZSCAN30 (11745921_a_at) / RFU CMKLR1 (11741424_a_at) / Fold change /veh CMKLR1 (11741424_a_at) / RFU LOC101060620 /// MAPK8IP1 (11723275_at) / Fold change /veh LOC101060620 /// MAPK8IP1 (11723275_at) / RFU SPTSSB (11747773_x_at) / Fold change /veh SPTSSB (11747773_x_at) / RFU PRSS12 (11739890_at) / Fold change /veh PRSS12 (11739890_at) / RFU BIN1 (11741810_x_at) / Fold change /veh BIN1 (11741810_x_at) / RFU WNT11 (11732464_a_at) / Fold change /veh WNT11 (11732464_a_at) / RFU C10orf10 (11716521_a_at) / Fold change /veh C10orf10 (11716521_a_at) / RFU C5orf56 (11738089_at) / Fold change /veh C5orf56 (11738089_at) / RFU CYB561 (11721691_x_at) / Fold change /veh CYB561 (11721691_x_at) / RFU ANKRD19P (11752326_a_at) / Fold change /veh ANKRD19P (11752326_a_at) / RFU OR2T12 /// OR2T33 /// OR2T8 (11738714_s_at) / Fold change /veh OR2T12 /// OR2T33 /// OR2T8 (11738714_s_at) / RFU VCAN (11748164_a_at) / Fold change /veh VCAN (11748164_a_at) / RFU JSRP1 (11732532_at) / Fold change /veh JSRP1 (11732532_at) / RFU KRTAP10-11 (11738290_x_at) / Fold change /veh KRTAP10-11 (11738290_x_at) / RFU MYO3A (11730013_a_at) / Fold change /veh MYO3A (11730013_a_at) / RFU EBF3 (11725865_a_at) / Fold change /veh EBF3 (11725865_a_at) / RFU CAMK2N1 (11719241_x_at) / Fold change /veh CAMK2N1 (11719241_x_at) / RFU C5orf56 (11738088_a_at) / Fold change /veh C5orf56 (11738088_a_at) / RFU OLFML3 (11715873_a_at) / Fold change /veh OLFML3 (11715873_a_at) / RFU LOC100653217 /// NTM (11731650_a_at) / Fold change /veh LOC100653217 /// NTM (11731650_a_at) / RFU MAPK11 (11762145_a_at) / Fold change /veh MAPK11 (11762145_a_at) / RFU FIZ1 (11724087_x_at) / Fold change /veh FIZ1 (11724087_x_at) / RFU OASL (11726364_x_at) / Fold change /veh OASL (11726364_x_at) / RFU SOX15 (11748057_x_at) / Fold change /veh SOX15 (11748057_x_at) / RFU CD79A (11719716_a_at) / Fold change /veh CD79A (11719716_a_at) / RFU HIST1H1D (11736915_at) / Fold change /veh HIST1H1D (11736915_at) / RFU CASKIN2 (11723855_a_at) / Fold change /veh CASKIN2 (11723855_a_at) / RFU LOC730098 (11760151_x_at) / Fold change /veh LOC730098 (11760151_x_at) / RFU OR4N2 (11742367_at) / Fold change /veh OR4N2 (11742367_at) / RFU PRRT2 (11749266_a_at) / Fold change /veh PRRT2 (11749266_a_at) / RFU SNX32 (11753110_a_at) / Fold change /veh SNX32 (11753110_a_at) / RFU CDHR5 (11726645_a_at) / Fold change /veh CDHR5 (11726645_a_at) / RFU RCAN1 (11760418_a_at) / Fold change /veh RCAN1 (11760418_a_at) / RFU FAM167A (11723789_a_at) / Fold change /veh FAM167A (11723789_a_at) / RFU FAM26E (11764081_at) / Fold change /veh FAM26E (11764081_at) / RFU ISYNA1 (11749810_s_at) / Fold change /veh ISYNA1 (11749810_s_at) / RFU ACY1 (11761880_at) / Fold change /veh ACY1 (11761880_at) / RFU 11764098_at / Fold change /veh 11764098_at / RFU SAMD14 (11745864_x_at) / Fold change /veh SAMD14 (11745864_x_at) / RFU NPB (11741838_a_at) / Fold change /veh NPB (11741838_a_at) / RFU TMPRSS6 (11731388_a_at) / Fold change /veh TMPRSS6 (11731388_a_at) / RFU KRTAP10-2 (11738614_at) / Fold change /veh KRTAP10-2 (11738614_at) / RFU ARHGAP8 /// PRR5-ARHGAP8 (11727945_x_at) / Fold change /veh ARHGAP8 /// PRR5-ARHGAP8 (11727945_x_at) / RFU KRTAP5-7 /// NADSYN1 (11734609_at) / Fold change /veh KRTAP5-7 /// NADSYN1 (11734609_at) / RFU RASL12 (11751679_a_at) / Fold change /veh RASL12 (11751679_a_at) / RFU CDKN2B (11736163_a_at) / Fold change /veh CDKN2B (11736163_a_at) / RFU PRF1 (11729649_at) / Fold change /veh PRF1 (11729649_at) / RFU, ZNF638 /// ZNF638-IT1 / Fold change vs veh, ZNF638 /// ZNF638-IT1 / RFU, PANK3 / Fold change vs veh, PANK3 / RFU, SH3YL1 / Fold change vs veh, SH3YL1 / RFU, ZEB2 / Fold change vs veh, ZEB2 / RFU, NRIP1 / Fold change vs veh, NRIP1 / RFU, PTTG1IP / Fold change vs veh, PTTG1IP / RFU, CAPN2 / Fold change vs veh, CAPN2 / RFU, MED14 / Fold change vs veh, MED14 / RFU, SNORA58 / Fold change vs veh, SNORA58 / RFU, C1orf63 / Fold change vs veh, C1orf63 / RFU, LRRFIP1 / Fold change vs veh, LRRFIP1 / RFU, NDUFAF7 / Fold change vs veh, NDUFAF7 / RFU, SLC12A2 / Fold change vs veh, SLC12A2 / RFU, IBTK / Fold change vs veh, IBTK / RFU, ESF1 / Fold change vs veh, ESF1 / Fold change vs veh, TMEM50B / RFU, TAOK1 / Fold change vs veh, TAOK1 / RFU, ACBD3 / Fold change vs veh, ACBD3 / RFU, TMA16 / Fold change vs veh, TMA16 / RFU, RWDD3 / Fold change vs veh, RWDD3 / RFU, BCAT1 / Fold change vs veh, BCAT1 / RFU, EDEM3 / Fold change vs veh, EDEM3 / RFU, TMEM33 / Fold change vs veh, TMEM33 / RFU, WDR75 / Fold change vs veh, WDR75 / RFU, AHCTF1 / Fold change vs veh, AHCTF1 / RFU, TFRC / Fold change vs veh, TFRC / RFU, ZDHHC17 / Fold change vs veh, ZDHHC17 / RFU, NOM1 / Fold change vs veh, NOM1 / RFU, ARL8B / Fold change vs veh, ARL8B / RFU, ZBTB11 / Fold change vs veh, ZBTB11 / RFU, TAMM41 / Fold change vs veh, TAMM41 / RFU, KIAA1704 /// LOC100996395 / Fold change vs veh, KIAA1704 /// LOC100996395 / RFU, ING1 / Fold change vs veh, ING1 / RFU, TRMT61B / Fold change vs veh, TRMT61B / RFU, FUBP3 / Fold change vs veh, FUBP3 / RFU, TP53 / Fold change vs veh, TP53 / RFU, TNKS2 / Fold change vs veh, TNKS2 / RFU, ZFP14 / Fold change vs veh, ZFP14 / RFU, ACTR2 / Fold change vs veh, ACTR2 / RFU, PPP3R1 / Fold change vs veh, PPP3R1 / RFU, PIK3R1 / Fold change vs veh, PIK3R1 / RFU, HNRNPA1 / Fold change vs veh, HNRNPA1 / RFU, RNF170 / Fold change vs veh, RNF170 / RFU, ZNF28 / Fold change vs veh, ZNF28 / RFU, RNGTT / Fold change vs veh, RNGTT / RFU, OGT / Fold change vs veh, OGT / RFU, BRD1 / Fold change vs veh, BRD1 / RFU, MARS / Fold change vs veh, MARS / RFU, ZNF655 / Fold change vs veh, ZNF655 / RFU, FAHD1 / Fold change vs veh, FAHD1 / RFU, BDP1 / Fold change vs veh, BDP1 / RFU, LRRCC1 / Fold change vs veh, LRRCC1 / RFU, ARID1A / Fold change vs veh, ARID1A / RFU, ZNF146 / Fold change vs veh, ZNF146 / RFU, ZNF330 / Fold change vs veh, ZNF330 / RFU, GPN3 / Fold change vs veh, GPN3 / RFU, C9orf123 / Fold change vs veh, C9orf123 / RFU, N4BP2L2 / Fold change vs veh, N4BP2L2 / RFU, ARFIP1 / Fold change vs veh, ARFIP1 / RFU, FAM179B / Fold change vs veh, FAM179B / RFU, BCL10 / Fold change vs veh, BCL10 / RFU, UHRF1BP1L / Fold change vs veh, UHRF1BP1L / RFU, BET1 / Fold change vs veh, BET1 / RFU, CNOT2 / Fold change vs veh, CNOT2 / RFU, ZNF268 / Fold change vs veh, ZNF268 / Fold change vs veh, ZNF507 / RFU, DGCR2 / Fold change vs veh, DGCR2 / RFU, WDSUB1 / Fold change vs veh, WDSUB1 / Fold change vs veh, HSP90B1 /// MIR3652 / RFU, ADSS / Fold change vs veh, ADSS / RFU, GK / Fold change vs veh, GK / RFU, ZNF148 / Fold change vs veh, ZNF148 / RFU, TAF9 / Fold change vs veh, TAF9 / RFU, SLC1A5 / Fold change vs veh, SLC1A5 / RFU, SLMO2 / Fold change vs veh, SLMO2 / RFU, ABCC4 / Fold change vs veh, ABCC4 / RFU, LOC101060439 /// RAP1B / Fold change vs veh, LOC101060439 /// RAP1B / RFU, RFX7 / Fold change vs veh, RFX7 / RFU, GTPBP10 / Fold change vs veh, GTPBP10 / RFU, CNEP1R1 / Fold change vs veh, CNEP1R1 / RFU, BIVM-ERCC5 /// ERCC5 / Fold change vs veh, BIVM-ERCC5 /// ERCC5 / RFU, ILF3 / Fold change vs veh, ILF3 / RFU 11762660_at / Fold change /veh 11762660_at / RFU VCAN (11757783_s_at) / Fold change /veh VCAN (11757783_s_at) / RFU DDX43 (11728927_at) / Fold change /veh DDX43 (11728927_at) / RFU KRT8 (11758188_x_at) / Fold change /veh KRT8 (11758188_x_at) / RFU NKD1 (11759106_at) / Fold change /veh NKD1 (11759106_at) / RFU SRD5A1 (11742802_a_at) / Fold change /veh SRD5A1 (11742802_a_at) / RFU TPSAB1 /// TPSB2 (11721975_s_at) / Fold change /veh TPSAB1 /// TPSB2 (11721975_s_at) / RFU GSTM3 (11746129_a_at) / Fold change /veh GSTM3 (11746129_a_at) / RFU IL23R (11737362_x_at) / Fold change /veh IL23R (11737362_x_at) / RFU TMEM51 (11727254_a_at) / Fold change /veh TMEM51 (11727254_a_at) / RFU PIWIL2 (11732686_x_at) / Fold change /veh PIWIL2 (11732686_x_at) / RFU ORM1 (11744905_x_at) / Fold change /veh ORM1 (11744905_x_at) / RFU CCDC152 (11743942_at) / Fold change /veh CCDC152 (11743942_at) / RFU ECM1 (11717891_a_at) / Fold change /veh ECM1 (11717891_a_at) / RFU IL23R (11748794_a_at) / Fold change /veh IL23R (11748794_a_at) / RFU TNFAIP8L3 (11732012_x_at) / Fold change /veh TNFAIP8L3 (11732012_x_at) / RFU MBOAT4 (11741988_at) / Fold change /veh MBOAT4 (11741988_at) / RFU 11764193_at / Fold change /veh 11764193_at / RFU TMEM53 (11763286_at) / Fold change /veh TMEM53 (11763286_at) / RFU MAGEB2 (11727129_at) / Fold change /veh MAGEB2 (11727129_at) / RFU TMEM200A (11744735_a_at) / Fold change /veh TMEM200A (11744735_a_at) / RFU CCDC152 (11751479_a_at) / Fold change /veh CCDC152 (11751479_a_at) / RFU FAM211A (11726209_a_at) / Fold change /veh FAM211A (11726209_a_at) / RFU RGS16 (11746705_a_at) / Fold change /veh RGS16 (11746705_a_at) / RFU VCAN (11755009_s_at) / Fold change /veh VCAN (11755009_s_at) / RFU RHOB (11743442_s_at) / Fold change /veh RHOB (11743442_s_at) / RFU RGS16 (11720943_a_at) / Fold change /veh RGS16 (11720943_a_at) / RFU RGS16 (11720944_at) / Fold change /veh RGS16 (11720944_at) / RFU, VPS4B / Fold change vs veh, VPS4B / RFU, CREB1 / Fold change vs veh, CREB1 / RFU, DNAJC13 / Fold change vs veh, DNAJC13 / RFU, GNAQ / Fold change vs veh, GNAQ / RFU, CDK5R1 / Fold change vs veh, CDK5R1 / RFU, ZRANB3 / Fold change vs veh, ZRANB3 / RFU, CUL4A / Fold change vs veh, CUL4A / RFU, CCNY / Fold change vs veh, CCNY / RFU, UFL1 / Fold change vs veh, UFL1 / RFU, COG3 / Fold change vs veh, COG3 / RFU, DIAPH2 / Fold change vs veh, DIAPH2 / RFU, SKA2 / Fold change vs veh, SKA2 / RFU, AFF3 / Fold change vs veh, AFF3 / RFU, LMF1 / Fold change vs veh, LMF1 / RFU, IPO11 / Fold change vs veh, IPO11 / RFU, DFFB / Fold change vs veh, DFFB / RFU, FOXP1 / Fold change vs veh, FOXP1 / RFU, CARD8 / Fold change vs veh, CARD8 / RFU, STRN3 / Fold change vs veh, STRN3 / RFU, ADK / Fold change vs veh, ADK / RFU, RASSF2 / Fold change vs veh, RASSF2 / RFU, WIPF1 / Fold change vs veh, WIPF1 / RFU, LARP1B / Fold change vs veh, LARP1B / RFU, RASA1 / Fold change vs veh, RASA1 / RFU, RB1 / Fold change vs veh, RB1 / RFU, PPFIA1 / Fold change vs veh, PPFIA1 / RFU, MAT2A / Fold change vs veh, MAT2A / RFU, CCT5 / Fold change vs veh, CCT5 / RFU, WDR92 / Fold change vs veh, WDR92 / RFU, CUX1 / Fold change vs veh, CUX1 / RFU, TTC7A / Fold change vs veh, TTC7A / RFU, TMEM135 / Fold change vs veh, TMEM135 / RFU, DEPTOR / Fold change vs veh, DEPTOR / RFU, CPM / Fold change vs veh, CPM / RFU, DNAJB6 / Fold change vs veh, DNAJB6 / RFU, CACNA2D3 / Fold change vs veh, CACNA2D3 / RFU, DTX4 / Fold change vs veh, DTX4 / RFU, TFCP2 / Fold change vs veh, TFCP2 / RFU, GMCL1 /// GMCL1P1 / Fold change vs veh, GMCL1 /// GMCL1P1 / RFU, AEBP2 / Fold change vs veh, AEBP2 / RFU, SNHG1 /// SNORD22 /// SNORD25 /// SNORD26 /// SNORD27 /// SNORD28 /// SNORD29 /// SNORD31 / Fold change vs veh, SNHG1 /// SNORD22 /// SNORD25 /// SNORD26 /// SNORD27 /// SNORD28 /// SNORD29 /// SNORD31 / Fold change (Aza/veh), C12orf56 (ProbeSet 11735607_a_at) / Fold change (ACY-1035/veh), C12orf56 (ProbeSet 11735607_a_at) / Fold change (Aza/veh), FGFR1OP (ProbeSet 11751329_s_at) / Fold change (ACY-1035/veh), FGFR1OP (ProbeSet 11751329_s_at) / Fold change (Aza/veh), VPS36 (ProbeSet 11739960_a_at) / Fold change (ACY-1035/veh), VPS36 (ProbeSet 11739960_a_at) / RFU SYPL1 (11715823_x_at) / Fold change /veh SYPL1 (11715823_x_at) / RFU IGFBP7 (11715501_s_at) / Fold change /veh IGFBP7 (11715501_s_at) / RFU REEP3 (11722064_at) / Fold change /veh REEP3 (11722064_at) / RFU IGLL1 (11728026_x_at) / Fold change /veh IGLL1 (11728026_x_at): dose or concentration left out as unconfirmed
Conditions: ProbeSet 11745260_x_at; LIST B

## Nc1ccc(-c2cccs2)cc1NC(=O)c1ccc2c(c1)cc(C1CC1)n2CCN1CCOCC1 [ACY-1035]
  Fold change vs veh, SLC12A2: 0.87
